# Experiments:
# [1] = test system: OVA-specific immune response; experiment: Example 11: in vivo immune response after footpad vaccination with OVA formulations; design: species or system mice
# Procedure: FIG. 14: Mice were vaccinated at day 0 and day 28 with 10 μg OVA equivalent of the various forms and combinations shown, and were sacrificed on day 35 for analysis. The intensity of the CD8+ T cell response was judged by measuring the frequency of […] (SEQ ID NO. 1) pentamer-binding cells.
# FIG. 15: Mice were vaccinated at day 0 and day 28 with 10 μg OVA equivalent of the various forms and combinations shown, and were sacrificed on day 35 for analysis. The cytokine responsiveness of cells in the LN was determined after antigen re-exposure. […] Separation of the formulation into its component parts was not effective: of particular note, free antigen mixed with but not conjugated to the p(Man-TLR) nanoadjuvant (OVA+pManTLR, yellow) was not nearly as effective, showing the need for the conjugate.
# FIG. 16: The humoral response to vaccination was characterized by measuring the frequency of antibody-producing plasma cells and the frequency of Tfh cells in the spleen, and the antibody titers in the blood.
# Mice were vaccinated in the four footpads on day 0 and 28 with either OVA-p(Man-TLR), OVA and mTLR, OVA conjugated to p(Man) (OVA-p(Man)) and mTLR, OVA+p(Man-TLR) or just p(Man-TLR). Animals treated with formulations containing OVA received 10 μg of OVA in its free or conjugated form, and animals treated with formulations containing TLR received 30 μg of TLR in its free or […] form. The animals were sacrificed on day 35 and the spleens and lymph nodes were analyzed for the resulting immune response.
# B16F10/OVA tumors = experiment: Example 13: cancer vaccination in mice bearing B16F10/OVA tumors; assay type: in vivo, C57BL/6 mice
# Procedure: In order to determine if OVA-p(Man-TLR) conjugates could inhibit the growth of OVA-expressing tumors, mice bearing B16F10/OVA tumors (that is, B16F10 melanoma cells expressing the xeno-antigen OVA as a model tumor antigen) were treated with OVA-p(Man-TLR). 10^5 B16F10/OVA cells were inoculated subcutaneously (s.c.) between the scapulae in C57BL/6 mice on day 0 and left to engraft and grow for 4 days. On day 4, 7, and 14, mice were administered saline or vaccinated with OVA-p(Man-TLR) or OVA and free p(Man-TLR). Animals treated with OVA received 10 μg OVA and 40 μg of TLR.
# [2] = test system: OVA-specific immune response; experiment: OVA vaccination day 0 and 28, T cell response after restimulation; assay type: in vivo, mice
# Procedure: (§1) Mice were immunized on day 0 and 28 with one of […] formulations: 1.) 10 μg of OVA+30 μg, 2.) p(Man-TLR) (30 μg equivalent of TLR7-MA), 3.) 10 μg of OVA and unconjugated p(Man-TLR) (30 μg equivalent of TLR7-MA), 4.) 10 μg of OVA-p(Man) conjugate with 30 μg of TLR7-MA, or 5.) 10 μg of OVA-p(Man-TLR).
# Given the ability of p(Man-TLR) to activate BMDCS and target tethered proteins to various DC-subsets, mice were treated with OVA-p(Man-TLR) and the OVA-specific immune response was analyzed. Animals were treated on day 0 and 28 with an i.d. injection of OVA-p(Man-TLR), OVA-p(Man)+TLR7-MA, OVA and unconjugated p(Man-TLR), p(Man-TLR), or OVA+CpG. Mice receiving formulations that contained either free or polymer-conjugated OVA were treated with 10 μg of OVA on days 0 and 28. Mice treated with formulations containing either TLR7-MA or p(man-TLR) either free or OVA conjugated received 30 μg of TLR7-agonist as TLR7-MA or the total weight of TLR7-MA monomer units in the polymer on days 0 and 28. Mice treated with OVA and CPG received 30 μg of CPG on days 0 and 28. After 35 days, the lymphocytes from the spleen and lymph node were harvested and restimulated with either whole OVA or the CD8 immunodominant peptide […].
# DCs (CD11c+ cells) = experiment: Example 10: in vivo DC activation in draining lymph nodes after footpad injection; design: species or system mice; settings: footpads, 50 μg fluorescently-labeled OVA, 24 h
# Description: Activation is highest in DCs that collect the formulation and thus are also antigen-positive. Thus, both antigen and adjuvant are co-delivered to the same DCs, which are then the cells that are activated. This is one of the benefits of selecting TLR7 as an adjuvant target, based on its intracellular, endosomal localization.
# In order to be an effective adjuvant/delivery system for vaccine development, p(Man-TLR) conjugates preferably target antigens to APCs and activate these cells in vivo. Mice were injected in the footpads with 50 μg of fluorescently-labeled OVA conjugated to p(Man-TLR) or free non-conjugated fluorescently-labeled OVA. After 24 h, the draining lymph nodes of these animals were collected and processed into single cells suspensions. The lymphocytes were then analyzed via flow cytometry for the presence of the co-stimulatory molecule markers CD86 and CD80 on APCs. […] Furthermore, CD11c+ cells that had taken up OVA-p(Man-TLR) conjugates (i.e., Protein+CD11c+ cells) had higher levels of expression of CD80 and CD86 as compared to the expression of CD80 and CD86 on the total CD11c+ population of mice treated with OVA-p(Man-TLR).
# [3] = test system: OVA-specific immune response; experiment: OVA vaccination day 0 and 28, humoral immune response; assay type: in vivo, mice
# Procedure: as §1
# In order to initiate protection against extracellular microorganisms and to prevent the spread of intracellular infections, effective vaccines preferably induce a strong humoral immune response. The ability of OVA-p(Man-TLR) to mount an effective humoral immune response was analyzed by determining the percentage of T follicular helper (Tfh) cells in the LN and spleen, the number of antigen specific plasma cells in the spleen, and the OVA specific antibody titers of vaccinated mice. […] Given these impressive results, we analyzed the blood of vaccinated animals for total OVA-specific IgG titers as well as OVA-specific IgG2C titers.
substance,measurement,setting,value
OVA-p(Man-TLR): model antigen ovalbumin (OVA) conjugated to p(Man-TLR) via self-immolative linker,OVA-specific total IgG vs non-conjugate vaccine (OVA+pMan-TLR),[1]; FIG. 16,elevated by more than an order of magnitude
same,CD8+ and CD4+ T cells positive for both TNFα and IFNγ upon restimulation vs other treatments,[1]; day 35,significantly more CD8+ and CD4+ T cells that are positive for both the proinflammatory cytokines TNFα and IFNγ
same,OVA-specific antibodies in the blood vs other treatments,[1]; day 35,significantly more OVA-specific antibodies in the blood
same,splenic IgG producing plasma cells and T follicular helper cells vs other treatments,[1]; day 35,significantly more splenic IgG producing plasma cells and T follicular helper cells
same,OVA pentamer+ cells in lymph nodes and spleens vs other therapies,"[1]; footpads day 0 and 28, 10 μg OVA, 30 μg TLR, day 35",significantly more OVA pentamer+ cells in the lymph nodes and spleens
same,growth of B16/OVA tumors,"B16F10/OVA tumors; treated day 4, 7 and 14, 10 μg OVA and 40 μg of TLR",capable of inhibiting the growth of B16/OVA tumors
same,pentamer+CD8+ cells in the draining lymph nodes vs OVA+p(Man-TLR),B16F10/OVA tumors; tumor-bearing mice,induced significantly more pentamer+CD8+ cells in the draining lymph nodes
same,percentage of OVA pentamer+ cells in the draining lymph nodes,"B16F10/OVA tumors; tumor-bearing mice, FIG. 20",increased the percentage of OVA pentamer+ cells in the draining lymph nodes
same,IFNγ+CD4+ T cells after restimulation vs other treatments,"[2]; i.d. day 0 and 28, 10 μg OVA, 30 μg TLR7-agonist, day 35",significantly more IFNγ+CD4+ T cells
same,IFNγ+CD8 T cells in the lymph nodes vs OVA-p(Man)+TLR7-MA and OVA+CpG,"[2]; i.d. day 0 and 28, day 35",increased the number of IFNγ+CD8 T cells in the lymph nodes
same,TNFα positive CD8+ and CD4+ T cells in restimulated splenocytes vs other TLR7-MA or p(Man-TLR) formulations,"[2]; i.d. day 0 and 28, day 35",significantly increased the number of CD8+ and CD4+ T cells that are positive for TNFα
same,CD80 and CD86 expression on CD11c+ cells of draining lymph nodes vs free OVA,DCs (CD11c+ cells),express significantly more CD80 and CD86
same,total OVA-specific IgG and IgG2C titers vs other vaccine formulations,[3]; blood of vaccinated animals,significant increase in both total IgG and IgG2C titers
same,increase in number of IgG-producing plasma cells vs OVA+p(Man-TLR) or other formulations,"[3]; day 35, spleen, FIG. 11C",more than 2 fold
same,percentage of Tfh in lymph node and spleen vs other treatments,"[3]; day 35, vaccination on days 0 and 28",significantly increases the percentage of Tfh in the lymph node and spleen

# — US11484599B2, “Polymer conjugate vaccines” (The University of Chicago, priority 2015, dated 2022)
